Laboratory results: ChEMBL document CHEMBL5096161, “Medulloblastoma drugs in development: Current leads, trials and drawbacks” (Eur J Med Chem, 2021)
In brackets after ≈: the same amount, converted by molar mass.

What was measured:
D283 Med [1] = assay: Antitumor activity against human D283 Med cells assessed as inhibition of cell proliferation; format: functional, cell-based
Daoy [2] = assay: Antitumor activity against human Daoy cells assessed as inhibition of cell proliferation; format: functional, cell-based
[3] = Antiproliferative activity against human D556 Med cells assessed as inhibition of cell proliferation measured after 4 days by WST-1 assay; format: functional, cell-based; details: 96 h
Daoy [4] = assay: Antiproliferative activity against human Daoy cells assessed as inhibition of cell proliferation measured after 4 days by WST-1 assay; format: functional, cell-based; details: 96 h
[5] = Antitumor activity against human UW228 cells assessed as inhibition of cell growth incubated for 72 hrs by CellTiter-Glo luminescent assay; format: functional
Daoy [6] = assay: Antitumor activity against human Daoy cells assessed as inhibition of cell growth incubated for 72 hrs by CellTiter-Glo luminescent assay; format: functional
ONS-76 [7] = assay: Antitumor activity against human ONS-76 cells assessed as inhibition of cell growth incubated for 72 hrs by CellTiter-Glo luminescent assay; format: functional
[8] = Antitumor activity against human HD-MB03 cells assessed as inhibition of cell growth incubated for 72 hrs by CellTiter-Glo luminescent assay; format: functional
[9] = Cytotoxicity against human D384 Med cells assessed as reduction in cell viability incubated for 48 hrs by Cell TiterGlo luminescent assay; format: functional, cell-based; details: pooled result: one value given for 10 cell lines, strains, targets or settings
Daoy [10] = assay: Antiproliferative activity against human Daoy cells assessed as reduction in cell viability incubated for 48 hrs by MTT assay; format: functional, cell-based
D283 Med [11] = assay: Antiproliferative activity against human D283 Med cells assessed as reduction in cell viability incubated for 48 hrs by MTT assay; format: functional, cell-based
Daoy [12] = assay: Antiproliferative activity against human Daoy cells assessed as inhibition of cell growth incubated for 24 to 96 hrs by MTT assay; format: functional; details: time 24-96 hrs
ONS-76 [13] = assay: Antiproliferative activity against human ONS-76 cells assessed as inhibition of cell growth incubated for 24 to 96 hrs by MTT assay; format: functional; details: time 24-96 hrs
ONS-76 [14] = assay: Antitumor activity against human ONS-76 cells xenografted in athymic nude mouse assessed as inhibition of tumor growth at 100 mg/kg, po QD for 9 days; format: functional; details: ONS-76, 216 h, time 9 day, read-out: TGI
[15] = Ratio of AUC (0 to infinity) in brain to plasma of C57BL mouse at 20 mg/kg, iv by HPLC/MS/MS method; format: ADME, organism-based; details: brain and plasma, read-out: Ratio AUC
Protein smoothened [16] = biological target: T1, Protein smoothened (Homo sapiens, UniProt Q99835, D473H); assay: Antagonist activity at resistant Smo D473H mutant (unknown origin) expressed in mouse C3H 10T1/2 cells cotransfected with Gli reporter gene assessed as Gli luciferase activity incubated for 24 hrs by dual luciferase assay; format: functional, cell-based
T1 sequence (Q99835 28-787 D473H limits assumed): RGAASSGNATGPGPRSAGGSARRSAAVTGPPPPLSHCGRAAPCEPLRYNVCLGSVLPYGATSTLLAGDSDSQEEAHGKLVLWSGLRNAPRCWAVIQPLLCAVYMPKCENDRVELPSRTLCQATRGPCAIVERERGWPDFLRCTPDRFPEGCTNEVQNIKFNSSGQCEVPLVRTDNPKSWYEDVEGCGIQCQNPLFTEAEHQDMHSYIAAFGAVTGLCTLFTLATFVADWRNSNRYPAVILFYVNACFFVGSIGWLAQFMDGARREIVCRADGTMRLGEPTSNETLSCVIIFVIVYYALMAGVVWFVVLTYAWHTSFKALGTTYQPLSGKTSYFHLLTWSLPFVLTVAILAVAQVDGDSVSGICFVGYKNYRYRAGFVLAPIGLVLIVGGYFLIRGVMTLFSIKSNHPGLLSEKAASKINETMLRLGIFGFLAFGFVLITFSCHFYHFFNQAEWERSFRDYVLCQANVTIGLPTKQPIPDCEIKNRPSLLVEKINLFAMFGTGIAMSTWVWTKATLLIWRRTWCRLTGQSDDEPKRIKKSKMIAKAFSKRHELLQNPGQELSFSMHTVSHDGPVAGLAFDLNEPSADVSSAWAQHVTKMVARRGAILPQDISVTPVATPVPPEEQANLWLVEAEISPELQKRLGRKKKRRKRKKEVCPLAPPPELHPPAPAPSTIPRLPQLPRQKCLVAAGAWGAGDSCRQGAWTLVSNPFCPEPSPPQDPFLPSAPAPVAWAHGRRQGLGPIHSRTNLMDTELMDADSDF

[17] = Cytotoxicity against human D425 Med cells expressing Glt1-tTA:TRE-MYCN/Luc (GTML) assessed as reduction in cell viability incubated for 72 hrs by Resazurin assay; format: functional, cell-based
Daoy [18] = assay: Antiproliferative activity against human Daoy cells assessed as inhibition of cell growth incubated for 72 hrs by Alamar blue dye based fluorescence spectrophotometric assay; format: functional
[19] = Antiproliferative activity against human pateint derived Medulloblastoma cells assessed as inhibition of cell growth incubated for 72 hrs by Alamar blue dye based fluorescence spectrophotometric assay; format: functional
[20] = Inhibition of hedgehog signalling in mouse NIH3T3 cells cotransfected with Gli/RE luciferase reporter gene assessed as Gli luciferase activity preincubated for 15 to 30 mins followed by ShhN stimulation and after 28 hrs by Steady-Glo reagent based luciferase assay
[21] = Antitumor activity against human Med-211 FH cells xenografted in athymic nude mouse assessed as tumor regression at 75 mg/kg, po QD for 28 days; format: functional; details: Med-211FH cell, 672 h, time 28 day, read-out: TGI
[22] = Antitumor activity against human Med-1712FH cells xenografted in athymic nude mouse assessed as tumor regression at 75 mg/kg, po QD for 28 days; format: functional; details: Med-1712FH cell, 672 h, time 28 day, read-out: TGI
[23] = Anticancer activity against human UW228 cells assessed as reduction in cell viability incubated for 72 hrs by CCK assay; format: functional, cell-based; details: UW228, 72 h
[24] = Anticancer activity against human MED-MEB-8A cells assessed as reduction in cell viability incubated for 72 hrs by CCK assay; format: functional, cell-based
[25] = Anticancer activity against human UW426 cells assessed as reduction in cell viability incubated for 72 hrs by CCK assay; format: functional, cell-based; details: UW426, 72 h
[26] = Anticancer activity against mouse Ptch+/- MB21 cells assessed as reduction in cell viability incubated for 72 hrs by CellTiter-Glo luminescent assay; format: functional, cell-based
[27] = Anticancer activity against mouse Ptch+/- Trp53-/- MB53 cells assessed as reduction in cell viability incubated for 72 hrs by CellTiter-Glo luminescent assay; format: functional, cell-based
[28] = Anticancer activity against mouse Ptch+/- MB55 cells assessed as reduction in cell viability incubated for 72 hrs by CellTiter-Glo luminescent assay; format: functional, cell-based
[29] = Inhibition of hedgehog signalling in mouse NIH3T3 cells cotransfected with Gli luciferase reporter gene assessed as Gli luciferase activity incubated for 48 hrs by Bright-Glo reagent based luciferase assay; format: cell-based; details: NIH3T3, 48 h
Protein smoothened [30] = biological target: T1, Protein smoothened; assay: Inhibition of Smo D473H mutant (unknown origin) expressed in mouse NIH3T3 cells cotransfected with Gli luciferase reporter gene assessed as Gli luciferase activity incubated for 48 hrs by Bright-Glo reagent based luciferase assay; format: cell-based
D283 Med [31] = assay: Antitumor activity against human D283 Med cells assessed as inhibition of cell proliferation incubated for 72 hrs by CellTiter-Glo luminescent assay; format: functional, cell-based
Daoy [32] = assay: Antitumor activity against human Daoy cells assessed as inhibition of cell proliferation incubated for 72 hrs by CellTiter-Glo luminescent assay; format: functional, cell-based

Which IC50 (D283 Med [1]) does the source give for `CCN1CCN(Cc2ccc(-c3cc4c(N[C@H](C)c5ccccc5)ncnc4[nH]3)cc2)CC1` [AEE-788] here?
Its IC50 is 3800 nM.

And the IC50 (Daoy [2])?
The IC50 was 1700 nM.

For `O=[As][As+](=O)[O-]` (centres undefined) [ARSENIC TRIOXIDE], which IC50 [3] is on record?
The IC50 was 400 nM.

What about the IC50 (Daoy [4]) of the same compound?
The IC50 was 400 nM.

Which GI50 [5] does the source give for `Cc1sc2c(c1C)C(c1ccc(Cl)cc1)=N[C@@H](CC(=O)Nc1ccc(O)cc1)c1nnc(C)n1-2` [BIRABRESIB] here?
The GI50 was 160 nM.

What about the GI50 (Daoy [6]) of the same compound?
The GI50 was 160 nM.

What about the GI50 (ONS-76 [7]) of the same compound?
The GI50 was 160 nM.

And the GI50 [8]?
The GI50 was 160 nM.

For `Nc1cc(C(F)(F)F)c(-c2cc(N3CCOCC3)nc(N3CCOCC3)n2)cn1` [BUPARLISIB], which IC50 [9] is on record?
The IC50 was 279 nM.

For `O=C(/C=C/c1ccc(CN(CCO)CCc2c[nH]c3ccccc23)cc1)NO` [DACINOSTAT], which IC50 (Daoy [10]) is on record?
The IC50 was less than 100 nM.

And the IC50 (D283 Med [11])?
Its IC50 is less than 200 nM.

For `CC1=C(/C=C/C(C)=C/C=C/C(C)=C/C(=O)Nc2ccc(O)cc2)C(C)(C)CCC1` [FENRETINIDE], which GI50 (Daoy [12]) is on record?
The GI50 was 5000 nM.

And the GI50 (ONS-76 [13])?
The GI50 was 2000 nM.

Which inhibition in vivo at 100 mg/kg (ONS-76 [14]) does the source give for `COc1cc2c(Oc3ccc(NC(=O)C4(C(=O)Nc5ccc(F)cc5)CC4)cc3F)ccnc2cc1OCCCN1CCOCC1` [FORETINIB] here?
The inhibition in vivo at 100 mg/kg was 50%.

What does the source list for `Cc1c(Cc2ccccc2)nnc(N2CCN(c3cnc(C(C)(C)O)cn3)[C@H](C)C2)c1C` [LEQ506]?
Kp [15]: 0.69; IC50 (Protein smoothened [16]): 96 nM

For `CNC(=O)c1nn(C)c2c1C(C)(C)Cc1cnc(Nc3ccc(N4CCN(C)CC4)cc3)nc1-2` [MILCICLIB], which IC50 [17] is on record?
Its IC50 is 940 nM.

What does the source list for `Cc1cn(-c2cc(NC(=O)c3ccc(C)c(Nc4nccc(-c5cccnc5)n4)c3)cc(C(F)(F)F)c2)cn1` [NILOTINIB]?
IC50 (Daoy [18]): 6000 nM; IC50 [19]: 5000 nM; IC50 [20]: 374 nM

Which inhibition in vivo at 75 mg/kg [21] does the source give for `CC(=O)c1c(C)c2cnc(Nc3ccc(N4CCNCC4)cn3)nc2n(C2CCCC2)c1=O` [PALBOCICLIB] here?
Its inhibition in vivo at 75 mg/kg is 63%.

What about the inhibition in vivo at 75 mg/kg [22] of the same compound?
The inhibition in vivo at 75 mg/kg was 63%.

With `Cc1[nH]c2ccccc2c1CCNCc1ccc(/C=C/C(=O)NO)cc1` [PANOBINOSTAT] as the compound, how does the IC50 [23] read?
The IC50 was 54 nM.

What about the IC50 [24] of the same compound?
Its IC50 is 46 nM.

What about the IC50 [25] of the same compound?
The IC50 was 67 nM.

Which results are given for `Cn1cc(CNCC2CCN(c3ncc(C(=O)NO)cn3)CC2)c2ccccc21` [QUISINOSTAT]?
IC50 (Daoy [10]): < 100 nM; IC50 (D283 Med [11]): < 200 nM

Which results are given for `O=C(O)c1ccc2c(c1)nc(Nc1cccc(Cl)c1)c1ccncc12` [SILMITASERTIB]?
IC50 [26]: 2500 nM; IC50 [27]: 2500 nM; IC50 [28]: 2500 nM

With `CCc1cc2c(c(OCC(F)(F)F)c(C(=O)NC3CCN(C(=O)CO)CC3)n2C)c(=O)n1CC(=O)c1ccccc1` [TAK-441] as the compound, how does the IC50 [29] read?
The IC50 was 4.4 nM.

And the IC50 (Protein smoothened [30])?
Its IC50 is 79 nM.

Which IC50 (D283 Med [31]) does the source give for `Cc1c(Cl)cccc1Nc1ccccc1C(=O)O` [TOLFENAMIC ACID] here?
Its IC50 is 20.8 µg/mL (≈ 79.5 µM).

And the IC50 (Daoy [32])?
Its IC50 is 21.6 µg/mL (≈ 82.5 µM).
